Source: US12624018B1, “Inhibitors of RIPK2 and medical uses thereof” (Odyssey Therapeutics, Inc., priority 2022, dated 2026)

Molecular target: T1, RIPK2 enzyme (Homo sapiens, UniProt O43353)
T1 construct: purchased Carna 09-128
Experiment: RIPK2 inhibition (ADP-Glo Kinase Assay)
Assay type: biochemical
Conditions: RIPK2 5 nM, ATP 150 μM, MBP substrate, read-out: RIPK2 IC50
How it was run: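 Swine MBP substrate; compound and 5 nM RIPK2 first mixed for 30 min at room temperature; buffer pH 7.5 HEPES 50 mM with 10 mM MgCl2, 2 mM DTT, 1 mM EGTA, Brij-35, BSA.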

T1 sequence (O43353 1-299 limits assumed): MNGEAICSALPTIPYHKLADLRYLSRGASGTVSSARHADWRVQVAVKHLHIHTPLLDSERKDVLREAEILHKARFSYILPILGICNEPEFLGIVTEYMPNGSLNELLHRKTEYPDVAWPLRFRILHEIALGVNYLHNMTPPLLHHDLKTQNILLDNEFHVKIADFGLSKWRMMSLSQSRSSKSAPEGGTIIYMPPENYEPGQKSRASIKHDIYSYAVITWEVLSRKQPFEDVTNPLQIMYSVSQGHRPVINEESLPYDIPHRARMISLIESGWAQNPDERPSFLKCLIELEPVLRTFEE

Point of comparison: `CC(C)(C)n1cc(NC(=O)Cc2ncc(Oc3ncnc4ccc(O[C@H]5C[C@H]6CC[C@@H](C5)N6)cc34)cc2F)cn1` [Compound 289, 2-(5-((6-(((1R,3r,5S)-8-azabicyclo[3.2.1]octan-3-yl)oxy)quinazolin-4-yl)oxy)-3-fluoropyridin-2-yl)-N-(1-(tert-butyl)-1H-pyrazol-4-yl)acetamide], IC50 4.3 nM. Against it:
- Cc1c(Oc2ccnc3ccc(S(=O)(=O)N(C)C)cc23)ccc(CC(=O)Nc2cnn(C(C)(C)C)c2)c1F [Compound 269, N-(1-(tert-butyl)-1H-pyrazol-4-yl)-2-(4-((6-(N,N-dimethylsulfamoyl)quinolin-4-yl)oxy)-2-fluoro-3-methylphenyl)acetamide] — lower, < 2.5 nM
- Cc1c(Oc2ccnc3ccc(S(=O)(=O)N4CCCC4)cc23)ccc(CC(=O)Nc2cnn(C(C)(C)C)c2)c1F [Compound 270, N-(1-(tert-butyl)-1H-pyrazol-4-yl)-2-(2-fluoro-3-methyl-4-((6-(pyrrolidin-1-ylsulfonyl)quinolin-4-yl)oxy)phenyl)acetamide] — lower, < 2.5 nM
- Cc1c(Oc2ccnc3ccc(S(=O)(=O)N4CCC4)cc23)ccc(CC(=O)Nc2cnn(C(C)(C)C)c2)c1F [Compound 271, 2-(4-((6-(azetidin-1-ylsulfonyl)quinolin-4-yl)oxy)-2-fluoro-3-methylphenyl)-N-(1-(tert-butyl)-1H-pyrazol-4-yl)acetamide] — lower, < 2.5 nM
- Cc1c(Oc2ccnc3ccc(S(=O)(=O)N4CC(F)C4)cc23)ccc(CC(=O)Nc2cnn(C(C)(C)C)c2)c1F [Compound 272, N-(1-(tert-butyl)-1H-pyrazol-4-yl)-2-(2-fluoro-4-((6-((3-fluoroazetidin-1-yl)sulfonyl)quinolin-4-yl)oxy)-3-methylphenyl)acetamide] — lower, < 2.5 nM
- Cc1c(Oc2ccnc3ccc(S(=O)(=O)N4CC(C#N)C4)cc23)ccc(CC(=O)Nc2cnn(C(C)(C)C)c2)c1F [Compound 273, N-(1-(tert-butyl)-1H-pyrazol-4-yl)-2-(4-((6-((3-cyanoazetidin-1-yl)sulfonyl)quinolin-4-yl)oxy)-2-fluoro-3-methylphenyl)acetamide] — lower, < 2.5 nM
- Cc1c(Oc2ccnc3ccc(S(=O)(=O)N4CCOCC4)cc23)ccc(CC(=O)Nc2cnn(C(C)(C)C)c2)c1F [Compound 274, N-(1-(tert-butyl)-1H-pyrazol-4-yl)-2-(2-fluoro-3-methyl-4-((6-(morpholinosulfonyl)quinolin-4-yl)oxy)phenyl)acetamide] — lower, < 2.5 nM
- Cc1c(Oc2ccnc3ccc(S(=O)(=O)N(C)CCO)cc23)ccc(CC(=O)Nc2cnn(C(C)(C)C)c2)c1F [Compound 275, N-(1-(tert-butyl)-1H-pyrazol-4-yl)-2-(2-fluoro-4-((6-(N-(2-hydroxyethyl)-N-methylsulfamoyl)quinolin-4-yl)oxy)-3-methylphenyl)acetamide] — lower, < 2.5 nM
- COCCN(C)S(=O)(=O)c1ccc2nccc(Oc3ccc(CC(=O)Nc4cnn(C(C)(C)C)c4)c(F)c3C)c2c1 [Compound 276, N-(1-(tert-butyl)-1H-pyrazol-4-yl)-2-(2-fluoro-4-((6-(N-(2-methoxyethyl)-N-methylsulfamoyl)quinolin-4-yl)oxy)-3-methylphenyl)acetamide] — lower, < 2.5 nM
- Cc1c(Oc2ccnc3ccc(NS(C)(=O)=O)cc23)ccc(CC(=O)Nc2cnn(C(C)(C)C)c2)c1F [Compound 277, N-(1-(tert-butyl)-1H-pyrazol-4-yl)-2-(2-fluoro-3-methyl-4-((6-(methylsulfonamido)quinolin-4-yl)oxy)phenyl) acetamide] — lower, < 2.5 nM
- Cc1c(Oc2ccnc3ccc(N(C)S(C)(=O)=O)cc23)ccc(CC(=O)Nc2cnn(C(C)(C)C)c2)c1F [Compound 278, N-(1-(tert-butyl)-1H-pyrazol-4-yl)-2-(2-fluoro-3-methyl-4-((6-(N-methylmethyl-sulfonamido)quinolin-4-yl)oxy)phenyl) acetamide] — lower, < 2.5 nM
- Cc1c(Oc2ccnc3ccc(N4CCCS4(=O)=O)cc23)ccc(CC(=O)Nc2cnn(C(C)(C)C)c2)c1F [Compound 279, N-(1-(tert-butyl)-1H-pyrazol-4-yl)-2-(4-((6-(1,1-dioxidoisothiazolidin-2-yl)quinolin-4-yl)oxy)-2-fluoro-3-methylphenyl) acetamide] — lower, < 2.5 nM
- Cc1cc(CC(=O)Nc2cnn(C(C)(C)C)c2)ccc1Oc1ccnc2ccc(S(=O)(=O)C3CCC3)cc12 [Compound 280, N-(1-(tert-butyl)-1H-pyrazol-4-yl)-2-(4-((6-(cyclobutylsulfonyl)quinolin-4-yl)oxy)-3-methylphenyl)acetamide] — lower, < 2.5 nM
- Cc1cc(CC(=O)Nc2cnn(C(C)(C)C)c2)ccc1Oc1ccnc2ccc(S(=O)(=O)C3CC(O)C3)cc12 (centres unmarked) [Compound 281, N-(1-(tert-butyl)-1H-pyrazol-4-yl)-2-(4-((6-((-3-hydroxycyclobutyl)sulfonyl)quinolin-4-yl)oxy)-3-methylphenyl)acetamide] — lower, < 2.5 nM
- Cc1c(Oc2ccnc3ccc(S(=O)(=O)C4CCC4)cc23)ccc(CC(=O)Nc2cnn(C(C)(C)C)c2)c1F [Compound 284, N-(1-(tert-butyl)-1H-pyrazol-4-yl)-2-(4-((6-(cyclobutylsulfonyl)quinolin-4-yl)oxy)-2-fluoro-3-methylphenyl)acetamide] — lower, < 2.5 nM
- Cc1cc(CC(=O)Nc2cnn(C(C)(C)C)c2)ccc1Oc1ccnc2ccc(N3CCCC3=O)cc12 [Compound 290, N-(1-(tert-butyl)-1H-pyrazol-4-yl)-2-(3-methyl-4-((6-(2-oxopyrrolidin-1-yl)quinolin-4-yl)oxy)phenyl) acetamide] — lower, < 2.5 nM
- Cc1cc(CC(=O)Nc2cnn(C(C)(C)C)c2)ccc1Oc1ccnc2ccc(N3CCOC3=O)cc12 [Compound 293, N-(1-(tert-butyl)-1H-pyrazol-4-yl)-2-(3-methyl-4-((6-(2-oxooxazolidin-3-yl)quinolin-4-yl)oxy)phenyl) acetamide] — lower, < 2.5 nM
- Cc1cc(CC(=O)Nc2cnn(C(C)(C)C)c2)ccc1Oc1ccnc2ccc(N3CCOCC3=O)cc12 [Compound 294, N-(1-(tert-butyl)-1H-pyrazol-4-yl)-2-(3-methyl-4-((6-(3-oxomorpholino)quinolin-4-yl)oxy)phenyl) acetamide] — lower, < 2.5 nM
- Cc1c(Oc2ccnc3ccc(N4CCCC4=O)cc23)ccc(CC(=O)Nc2cnn(C(C)(C)C)c2)c1F [Compound 295, N-(1-(tert-butyl)-1H-pyrazol-4-yl)-2-(2-fluoro-3-methyl-4-((6-(2-oxopyrrolidin-1-yl)quinolin-4-yl)oxy)phenyl) acetamide] — lower, < 2.5 nM
- Cc1c(Oc2ccnc3ccc(N4CCOC4=O)cc23)ccc(CC(=O)Nc2cnn(C(C)(C)C)c2)c1F [Compound 298, N-(1-(tert-butyl)-1H-pyrazol-4-yl)-2-(2-fluoro-3-methyl-4-((6-(2-oxooxazolidin-3-yl)quinolin-4-yl)oxy)phenyl) acetamide] — lower, < 2.5 nM
- Cc1c(Oc2ccnc3ccc(P(C)(C)=O)cc23)ccc(CC(=O)Nc2cnn(C(C)(C)C)c2)c1F [Compound 300, N-(1-(tert-butyl)-1H-pyrazol-4-yl)-2-(4-((6-(dimethylphosphoryl)quinolin-4-yl)oxy)-2-fluoro-3-methylphenyl) acetamide] — lower, < 2.5 nM
- CCP(=O)(CC)c1ccc2nccc(Oc3ccc(CC(=O)Nc4cnn(C(C)(C)C)c4)c(F)c3C)c2c1 [Compound 301, N-(1-(tert-butyl)-1H-pyrazol-4-yl)-2-(4-((6-(diethylphosphoryl)quinolin-4-yl)oxy)-2-fluoro-3-methylphenyl) acetamide] — lower, < 2.5 nM
- Cc1c(Oc2ccnc3ccc(C(C)(C)O)cc23)ccc(CC(=O)Nc2cnn(C(C)(C)C)c2)c1F [Compound 302, N-(1-(tert-butyl)-1H-pyrazol-4-yl)-2-(2-fluoro-4-((6-(2-hydroxypropan-2-yl)quinolin-4-yl)oxy)-3-methylphenyl)acetamide] — lower, < 2.5 nM
- COC(C)(C)c1ccc2nccc(Oc3ccc(CC(=O)Nc4cnn(C(C)(C)C)c4)c(F)c3C)c2c1 [Compound 303, N-(1-(tert-butyl)-1H-pyrazol-4-yl)-2-(2-fluoro-4-((6-(2-methoxypropan-2-yl)quinolin-4-yl)oxy)-3-methylphenyl)acetamide] — lower, < 2.5 nM
- Cc1cc(CC(=O)Nc2cnn(C(C)(C)C)c2)ccc1Oc1ccnc2ccc(OC3CCC(=O)NC3)cc12 (centres unmarked) [Compound 307, N-(1-(tert-butyl)-1H-pyrazol-4-yl)-2-(3-methyl-4-((6-((6-oxopiperidin-3-yl)oxy)quinolin-4-yl)oxy)phenyl) acetamide] — lower, < 2.5 nM
- Cc1cc(CC(=O)Nc2cnn(C(C)(C)C)c2)ccc1Oc1ccnc2ccc(OC3CCCNC3=O)cc12 (centres unmarked) [Compound 308, N-(1-(tert-butyl)-1H-pyrazol-4-yl)-2-(3-methyl-4-((6-((2-oxopiperidin-3-yl)oxy)quinolin-4-yl)oxy)phenyl) acetamide] — lower, < 2.5 nM
- Cc1cc(CC(=O)Nc2cnn(C(C)(C)C)c2)ccc1Oc1ccnc2ccc(S(=O)(=O)CC(C)(C)O)cc12 [Compound 309, N-(1-(tert-butyl)-1H-pyrazol-4-yl)-2-(4-((6-((2-hydroxy-2-methylpropyl)sulfonyl)quinolin-4-yl)oxy)-3-methylphenyl)acetamide] — lower, < 2.5 nM
- Cc1cc(CC(=O)Nc2cnn(C(C)(C)C)c2)ccc1Oc1ccnc2ccc(S(=O)(=O)C(C)(C)CO)cc12 [Compound 310, N-(1-(tert-butyl)-1H-pyrazol-4-yl)-2-(4-((6-((1-hydroxy-2-methylpropan-2-yl)sulfonyl)quinolin-4-yl)oxy)-3-methylphenyl)acetamide] — lower, < 2.5 nM
- Cc1cc(CC(=O)Nc2cnn(C(C)(C)C)c2)ccc1Oc1ccnc2ccc(S(=O)(=O)C3CCNCC3)cc12 [Compound 311, N-(1-(tert-butyl)-1H-pyrazol-4-yl)-2-(3-methyl-4-((6-(piperidin-4-ylsulfonyl)quinolin-4-yl)oxy)phenyl)acetamide] — lower, < 2.5 nM
